Measured values taken from the supplement of paper PMC10307832.

What was measured:
Experiment in all cases: relative viability (nuclei count vs DMSO), 5 days (fraction); higher = more cells survive
[1] = compound: Cc1ccc(C(=O)Nc2ccc(CN3CCN(C)CC3)c(C(F)(F)F)c2)cc1C#Cc1cnc2cccnn12 [Ponatinib] + CC(=O)c1c(C)c2cnc(Nc3ccc(N4CCNCC4)cn3)nc2n(C2CCCC2)c1=O [Palbociclib] (partner 0.5 µM)
Method in brief: (§1)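 Nuclei were stained with Hoechst during a one-step fixation (final 0.05% Triton X-100, 1% formaldehyde, 1 ug/ml Hoechst) carried out 5 days after dosing, then counted on 4× images. The cells, lung cancer lines in 1536-well plates, had been dosed by pin tool the day after seeding with one drug alone or a fixed anchor-drug dose plus five library-drug doses (not always all listed) in √10 steps. Relative viability is the nuclei count in treated wells divided by that in vehicle wells, and each value is the median of duplicate plates.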

[2] = compound: Cc1ccc(C(=O)Nc2ccc(CN3CCN(C)CC3)c(C(F)(F)F)c2)cc1C#Cc1cnc2cccnn12 [Ponatinib] + CC1(C)CCC(c2ccc(Cl)cc2)=C(CN2CCN(c3ccc(C(=O)NS(=O)(=O)c4ccc(N[C@H](CCN5CCOCC5)CSc5ccccc5)c(S(=O)(=O)C(F)(F)F)c4)cc3)CC2)C1 [Navitoclax] (partner 0.5 µM)
Method in brief: as §1

[3] = compound: Cc1ccc(Nc2nccc(N(C)c3ccc4c(C)n(C)nc4c3)n2)cc1S(N)(=O)=O [Pazopanib] + C[C@@H](Oc1cc(-c2cnn(C3CCNCC3)c2)cnc1N)c1c(Cl)ccc(F)c1Cl [Crizotinib] (partner 1 µM)
Method in brief: as §1

[4] = compound: Cc1ccc(Nc2nccc(N(C)c3ccc4c(C)n(C)nc4c3)n2)cc1S(N)(=O)=O [Pazopanib] + C[C@]1(O)C[C@@H](c2nc(-c3ccc4ccc(-c5ccccc5)nc4c3)c3c(N)nccn32)C1 [Linsitinib] (partner 1 µM)
Method in brief: as §1

Row | Cell Line | relative viability ([1]; first compound 0.002 µM) | relative viability ([1]; first compound 0.006325 µM) | relative viability ([1]; first compound 0.06325 µM) | relative viability ([1]; first compound 0.2 µM) | relative viability ([2]; first compound 0.002 µM) | relative viability ([2]; first compound 0.006325 µM) | relative viability ([2]; first compound 0.06325 µM) | relative viability ([2]; first compound 0.2 µM) | relative viability ([3]; first compound 0.01 µM) | relative viability ([3]; first compound 0.03162 µM) | relative viability ([3]; first compound 0.1 µM) | relative viability ([3]; first compound 0.3162 µM) | relative viability ([3]; first compound 1 µM) | relative viability ([4]; first compound 0.01 µM) | relative viability ([4]; first compound 0.03162 µM) | relative viability ([4]; first compound 0.1 µM) | relative viability ([4]; first compound 0.3162 µM) | relative viability ([4]; first compound 1 µM)
1 | BEN | 0.453 | 0.528 | 0.469 | 0.47 | 0.0656 | 0.0538 | 0.0585 | 0.0666 | 0.737 | 1.05 | 0.814 | 0.904 | 0.787 | 0.819 | 0.969 | 0.894 | 0.956 | 0.898
2 | CAL-12T | 0.295 | 0.524 | 0.622 | 0.535 | 1.07 | 1.16 | 1.43 | 1.24 | 0.685 | 0.676 | 0.726 | 0.6 | 0.675 | 0.83 | 0.927 | 0.792 | 0.941 | 0.981
3 | COR-L23 | 0.271 | 0.287 | 0.272 | 0.229 | 0.977 | 0.912 | 1 | 0.901 | 0.635 | 0.645 | 0.663 | 0.704 | 0.64 | 1.02 | 1.01 | 0.988 | 1.15 | 0.975
4 | COR-L 105 | 0.351 | 0.4 | 0.404 | 0.447 | 0.832 | 0.8 | 0.832 | 0.955 | 0.712 | 0.984 | 0.838 | 0.883 | 0.964 | 0.909 | 0.964 | 1.1 | 0.822 | 1.21
5 | EKVX | 0.382 | 0.419 | 0.458 | 0.438 | 0.878 | 0.907 | 1.04 | 0.735 | 0.841 | 1.07 | 0.898 | 0.916 | 0.891 | 0.95 | 1.04 | 0.869 | 1.03 | 1.04
6 | EMC-BAC-2 | 0.469 | 0.486 | 0.476 | 0.42 | 1.06 | 1.07 | 1.19 | 1.11 | 0.735 | 0.786 | 0.649 | 0.782 | 0.749 | 0.758 | 0.855 | 0.864 | 0.84 | 0.803
7 | EPLC-272H | 0.292 | 0.34 | 0.376 | 0.332 | 0.989 | 1.23 | 1.18 | 1.05 | 0.771 | 1.11 | 1.07 | 0.885 | 1.03 | 0.98 | 1.13 | 1.25 | 1.26 | 1.17
8 | H3255 | 0.325 | 0.312 | 0.297 | 0.297 | 0.477 | 0.501 | 0.725 | 0.479 | 0.828 | 0.882 | 0.853 | 0.945 | 0.995 | 0.888 | 0.954 | 1.01 | 0.814 | 1.03
9 | HARA | 0.246 | 0.332 | 0.228 | 0.246 | 1.13 | 1.14 | 1.12 | 1.16 | 1.1 | 1.04 | 1.22 | 1.05 | 1.1 | 0.916 | 0.862 | 1 | 1.03 | 1.03
10 | HCC-15 | 0.675 | 0.752 | 0.798 | 0.672 | 0.671 | 0.738 | 0.83 | 0.661 | 0.773 | 0.924 | 1.01 | 0.813 | 0.893 | 0.872 | 0.905 | 0.94 | 0.882 | 1.03
11 | HCC-44 | 0.891 | 0.981 | 0.932 | 0.852 | 0.941 | 0.98 | 1.16 | 0.93 | 0.839 | 0.779 | 0.86 | 0.795 | 0.823 | 0.575 | 0.673 | 0.678 | 0.582 | 0.722
12 | HCC-78 | 0.422 | 0.528 | 0.418 | 0.471 | 0.578 | 0.725 | 0.981 | 0.629 | 0.366 | 0.354 | 0.349 | 0.358 | 0.383 | 0.403 | 0.578 | 0.435 | 0.454 | 0.668
13 | HCC-366 | 0.339 | 0.361 | 0.423 | 0.361 | 1.03 | 1.02 | 1.14 | 0.966 | 0.508 | 0.485 | 0.478 | 0.528 | 0.63 | 0.472 | 0.73 | 0.674 | 0.828 | 0.885
14 | HCC-827 | 0.537 | 0.483 | 0.533 | 0.497 | 1.02 | 0.971 | 1.06 | 0.983 | 0.999 | 0.976 | 0.906 | 0.902 | 0.922 | 1.01 | 0.935 | 0.938 | 0.933 | 0.849
15 | HOP-62 | 0.378 | 0.374 | 0.334 | 0.376 | 0.943 | 0.984 | 1.01 | 0.817 | 0.974 | 0.68 |  | 0.946 | 0.948 | 0.9 | 0.973 |  | 1 | 0.859
16 | LC-2-ad | 0.474 | 0.448 | 0.359 | 0.347 | 0.482 | 0.419 | 0.49 | 0.349 | 0.483 | 0.462 | 0.467 | 0.423 | 0.467 | 0.813 | 0.778 | 0.868 | 0.8 | 0.842
17 | LCLC-97TM1 | 0.233 | 0.239 | 0.252 | 0.221 |  | 0.645 |  | 0.385 |  | 0.309 | 0.277 | 0.297 | 0.427 |  | 0.229 | 0.154 | 0.2 | 0.211
18 | LK-2 | 0.643 | 0.744 | 0.768 | 0.757 | 0.619 | 0.825 | 1.04 | 0.64 | 0.224 | 0.239 | 0.213 | 0.21 | 0.235 | 0.486 | 0.564 | 0.475 | 0.517 | 0.524
19 | LOU-NH91 | 0.587 | 0.531 | 0.528 | 0.549 | 0.679 | 0.753 | 0.779 | 0.655 | 0.726 | 0.731 | 0.711 | 0.757 | 0.761 | 0.89 | 0.98 | 0.984 | 1.04 | 0.935
20 | LU99A | 0.37 | 0.433 | 0.407 | 0.363 | 0.715 | 0.832 | 0.886 | 0.77 | 0.499 | 0.533 | 0.53 | 0.606 | 0.568 | 0.377 | 0.522 | 0.589 | 0.565 | 0.52
21 | LXF-289 | 0.606 | 0.613 | 0.6 | 0.611 | 0.862 | 0.957 | 0.935 | 0.971 | 0.851 | 0.829 | 0.801 | 0.782 | 0.824 | 0.973 | 0.957 | 0.921 | 0.93 | 0.98
22 | NCI-H23 | 0.521 | 0.495 | 0.683 | 0.509 | 0.762 | 0.828 | 0.852 | 0.781 | 0.594 | 0.474 | 0.577 | 0.735 | 0.591 | 0.505 | 0.629 | 0.556 | 0.567 | 0.842
23 | NCI-H322M | 0.524 | 0.501 | 0.501 | 0.471 | 1.2 | 1.15 | 1.3 | 0.907 | 0.922 | 0.924 | 0.784 | 0.893 | 0.844 | 0.772 | 1.06 | 0.899 | 1.05 | 0.972
24 | NCI-H441 | 0.238 | 0.229 | 0.252 | 0.209 | 0.638 | 0.42 | 0.554 | 0.596 | 0.686 | 0.704 | 0.639 | 0.625 | 0.596 | 0.536 | 0.528 | 0.558 | 0.5 | 0.612
25 | NCI-H460 | 0.218 | 0.212 | 0.223 | 0.177 | 1.04 | 1.05 | 1.24 | 1.06 | 0.931 | 1.15 | 0.849 | 1 | 0.963 | 0.823 | 1.13 | 0.838 | 0.98 | 0.827
26 | NCI-H520 | 0.215 | 0.207 | 0.172 | 0.16 | 0.946 | 1.1 | 0.922 | 0.646 |  | 0.894 | 0.991 | 0.672 | 0.747 |  | 1.05 | 1 | 0.946 | 1.05
27 | NCI-H647 | 0.358 | 0.345 | 0.47 | 0.438 | 1.04 | 1.07 | 1.21 | 0.935 | 1 | 1.22 | 1.26 | 1.01 | 1.06 | 1.17 | 1.4 | 1.17 | 1.23 | 1.11
28 | NCI-H727 | 0.737 | 0.708 | 0.769 | 0.654 | 0.612 | 0.53 | 0.472 | 0.523 | 0.98 | 0.787 | 1.15 | 0.831 | 1.08 | 0.311 | 0.336 | 0.35 | 0.237 | 0.245
29 | NCI-H838 | 0.216 | 0.234 | 0.219 | 0.21 | 1.1 | 1.21 | 1.19 | 0.979 | 0.821 | 0.951 | 0.982 | 0.912 | 1.08 | 1.01 | 1.05 | 1.01 | 1.18 | 1.19
30 | NCI-H1355 | 0.43 | 0.432 | 0.492 | 0.439 | 0.984 | 1.08 | 1.17 | 1.08 |  | 0.965 | 1.08 | 0.982 | 1.05 |  | 0.909 | 0.921 | 0.856 | 0.861
